In BindingDB's records for doi:10.1021/jm960324r (1996):

Tested on: Herpes simplex virus (HSV) ribonucleotide reductase (RR) enzyme
Test: Inhibitory effect was evaluated on Herpes simplex virus (HSV) ribonucleotide reductase (RR) enzyme.

CC(C)C[C@@H](NC(=O)[C@@H](CC(=O)O)NC(=O)[C@H](CC(=O)N1CCCC1)NC(=O)[C@H](NC(=O)NC1[C@@H](C)CCC[C@@H]1C)C(C)C)C(=O)O
IC50: 20 nM
